Assay results: patent USRE48461E1, “Modulation of androgen receptor expression” (Ionis Pharmaceuticals, Inc., priority 2012, dated 2021)
pIC50: −log10 of the molar value. Oligonucleotides are written 5' to 3', each unit as a sugar letter and its base; * is a phosphorothioate linkage, no mark a phosphodiester; rarer units and linkages stand in square brackets, end groups in braces. Plain capitals give the bases only. e = 2'-O-(2-methoxyethyl) (MOE); k = constrained ethyl (cEt); [5mC] = 5-methylcytosine; d = 2'-deoxy (DNA)

How the values were obtained:
[1] = system: AR mRNA; experiment: AR mRNA in liver, heart, skeletal muscle, kidney, prostate of cynomolgus monkeys; format: in vivo; conditions: cynomolgus monkey, 40 mg/kg subcutaneously; for Percent Inhibition of AR mRNA relative to the PBS control, Heart: weeks 1 to 6, Heart; for Percent Inhibition of AR mRNA relative to the PBS control, Kidney: weeks 1 to 6, Kidney; for Percent Inhibition of AR mRNA relative to the PBS control, Liver: weeks 1 to 6, Liver; for Percent Inhibition of AR mRNA relative to the PBS control, Prostate: weeks 1 to 6, Prostate; for Percent Inhibition of AR mRNA relative to the PBS control, Skeletal Muscle: weeks 1 to 6, Skeletal Muscle
Procedure: Cynomolgus monkeys were treated with ISIS antisense oligonucleotides selected from studies described above. Antisense oligonucleotide efficacy and tolerability were evaluated. The human antisense oligonucleotides tested are cross-reactive with the rhesus genomic sequence (GENBANK Accession No. NW_001218131.1 truncated from nucleotides 134001 to 308000 and designated herein as SEQ ID NO: 189). The target start site and target region of each oligonucleotide to SEQ ID NO: 189, as well as the details of their chemistry and sequence, is presented in Table 133.
RNA was extracted from liver, heart, skeletal muscle, kidney, and prostate tissues for real-time PCR analysis of AR using primer probe set RTS3559. The results were normalized to RIBOGREEN®. Results are presented as percent inhibition of AR mRNA, relative to PBS control.

[2] = system: AR mRNA; experiment: Antisense inhibition of human AR in HuVEC cells, single concentration (electroporation, qRT-PCR RTS3559); format: cell-based
Summary of the method: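 HuVEC cells electroporated with antisense oligonucleotides at a single concentration. AR mRNA quantified by qRT-PCR using human primer-probe set RTS3559 and normalised to total RNA content by RIBOGREEN.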

[3] = system: AR mRNA; experiment: AR mRNA in LnCaP cells by free uptake (hAR_LTS00943); format: cell-based, human; conditions: 24 hrs
Procedure: Cells were plated at a concentration of 4,000 cells/well in 96-well plates. ISIS oligonucleotides, specified in Table 68, were added individually at 0.02 μM, 0.10 μM, 0.50 μM, 2.50 μM, or 10.00 μM. After an incubation period of 24 hrs, mRNA levels were measured using primer probe set hAR_LTS00943.

[4] = system: AR mRNA; experiment: Dose-dependent antisense inhibition of human AR in HuVEC cells (electroporation, qRT-PCR RTS3559, IC50); format: cell-based; conditions: HuVEC
Summary of the method: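 HuVEC cells dosed with antisense oligonucleotides by electroporation and treated approximately 16 hours. AR mRNA quantified by real-time qPCR with primer probe set RTS3559 and normalised to total RNA by RIBOGREEN; IC50 from dose-response.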

[5] = system: TMPRSS2 mRNA; experiment: TMPRSS2 mRNA levels in LMR20 cells; format: cell-based, human; conditions: LMR20 cells; for TMPRSS2 mRNA levels (% baseline value) after treatment with DHT: DHT 10 nM 72 hrs; for TMPRSS2 mRNA levels (% baseline value) after treatment with R1881: R1881 10 nM 72 hrs; for TMPRSS2 mRNA levels (% baseline value) of cells without AR agonist treatment: no AR agonist
Procedure: (§1) LMR20 cells were plated at 1,500 cells per well in phenol red-free medium with CSS.

[6] = system: prostate-specific antigen (PSA) mRNA; experiment: PSA mRNA levels in LMR20 cells; format: cell-based, human; conditions: LMR20 cells; for PSA mRNA levels (% baseline value) after treatment with DHT: DHT 10 nM 72 hrs; for PSA mRNA levels (% baseline value) after treatment with R1881: R1881 10 nM 72 hrs; for PSA mRNA levels (% baseline value) of cells without AR agonist treatment: no AR agonist
Procedure: LMR20 cells were plated at 1,500 cells per well in phenol red-free medium with CSS. […] Results are presented in Tables 43-45 as mRNA levels expressed as a percentage of the baseline values. mRNA levels may be lowered or increased after treatment.

[7] = system: AR mRNA; experiment: AR mRNA levels in LMR20 cells (with/without DHT or R1881); format: cell-based, human; conditions: LMR20 cells; for AR mRNA levels (% baseline value) after treatment with DHT: DHT 10 nM 72 hrs; for AR mRNA levels (% baseline value) after treatment with R1881: R1881 10 nM 72 hrs; for AR mRNA levels (% baseline value) of cells without AR agonist treatment: no AR agonist
Procedure: as §1

With “584269 (k[5mC]*k[5mC]*kT*dT*dA*dT*dG*dG*dA*dT*dG*d[5mC]*dT*kG*k[5mC]*kT) [compound 584269]” the “Percent Inhibition of AR mRNA relative to the PBS control, Heart” value [1] was 72%, the “Percent Inhibition of AR mRNA relative to the PBS control, Kidney” value [1] was 92% and the “Percent Inhibition of AR mRNA relative to the PBS control, Liver” value [1] was 96%. The “Percent Inhibition of AR mRNA relative to the PBS control, Prostate” value [1] was 41%, the “Percent Inhibition of AR mRNA relative to the PBS control, Skeletal Muscle” value [1] was 76% and the “% inhibition” value ([2]; Table 25, 1,000 nM oligonucleotide, electroporation, approximately 24 hours, relative to untreated control) was 57%. For the same substance, the “Percent inhibition of AR mRNA” value ([3]; 0.02 μM) was 0%, the “Percent inhibition of AR mRNA” value ([3]; 0.1 μM) was 0% and the “Percent inhibition of AR mRNA” value ([3]; 0.5 μM) was 0%. For the same substance, the “Percent inhibition of AR mRNA” value ([3]; 10 μM) was 23%, the “percent inhibition of AR, 46.9 nM” value ([4]; Table 36, 46.9 nM, electroporation, approximately 16 hours) was 6% and the “percent inhibition of AR, 187.5 nM” value ([4]; Table 36, 187.5 nM, electroporation, approximately 16 hours) was 26%. For the same substance, the “percent inhibition of AR, 750.0 nM” value ([4]; Table 36, 750.0 nM, electroporation, approximately 16 hours) was 69%, the “percent inhibition of AR, 3000.0 nM” value ([4]; Table 36, 3000.0 nM, electroporation, approximately 16 hours) was 92% and the pIC50 ([4]; Table 36, electroporation, approximately 16 hours) was 6.47.
“560131 (antisense kT*kT*kG*dA*dT*dT*dT*dA*dA*dT*dG*dG*kT*kT*kG*e[5mC]) [compound 560131]” was tested, and the “TMPRSS2 mRNA levels (% baseline value) after treatment with DHT” value ([5]; ASO 0.04 μM) was 112 % baseline value, the “TMPRSS2 mRNA levels (% baseline value) after treatment with DHT” value ([5]; ASO 0.20 μM) was 108 % baseline value and the “TMPRSS2 mRNA levels (% baseline value) after treatment with DHT” value ([5]; ASO 1.0 μM) was 93 % baseline value. For the same substance, the “TMPRSS2 mRNA levels (% baseline value) after treatment with DHT” value ([5]; ASO 5.0 μM) was 71 % baseline value, the “TMPRSS2 mRNA levels (% baseline value) after treatment with R1881” value ([5]; ASO 0.04 μM) was 132 % baseline value and the “TMPRSS2 mRNA levels (% baseline value) after treatment with R1881” value ([5]; ASO 0.20 μM) was 117 % baseline value. For the same substance, the “TMPRSS2 mRNA levels (% baseline value) after treatment with R1881” value ([5]; ASO 1.0 μM) was 88 % baseline value, the “TMPRSS2 mRNA levels (% baseline value) after treatment with R1881” value ([5]; ASO 5.0 μM) was 76 % baseline value and the “TMPRSS2 mRNA levels (% baseline value) of cells without AR agonist treatment” value ([5]; ASO 0.04 μM) was 92 % baseline value. For the same substance, the “TMPRSS2 mRNA levels (% baseline value) of cells without AR agonist treatment” value ([5]; ASO 0.20 μM) was 67 % baseline value, the “TMPRSS2 mRNA levels (% baseline value) of cells without AR agonist treatment” value ([5]; ASO 1.0 μM) was 52 % baseline value and the “TMPRSS2 mRNA levels (% baseline value) of cells without AR agonist treatment” value ([5]; ASO 5.0 μM) was 45 % baseline value. The “Percent Inhibition of AR mRNA relative to the PBS control, Heart” value [1] was 32%, the “Percent Inhibition of AR mRNA relative to the PBS control, Kidney” value [1] was 19% and the “Percent Inhibition of AR mRNA relative to the PBS control, Liver” value [1] was 65%. For the same substance, the “Percent Inhibition of AR mRNA relative to the PBS control, Prostate” value [1] was 27%, the “Percent Inhibition of AR mRNA relative to the PBS control, Skeletal Muscle” value [1] was 30% and the “% inhibition” value ([2]; 250 nM ASO, ~24 h, Table 7) was 74%. For the same substance, the “PSA mRNA levels (% baseline value) after treatment with DHT” value ([6]; ASO 0.04 μM) was 74 % baseline value, the “PSA mRNA levels (% baseline value) after treatment with DHT” value ([6]; ASO 0.20 μM) was 61 % baseline value and the “PSA mRNA levels (% baseline value) after treatment with DHT” value ([6]; ASO 1.0 μM) was 35 % baseline value. For the same substance, the “PSA mRNA levels (% baseline value) after treatment with DHT” value ([6]; ASO 5.0 μM) was 35 % baseline value, the “PSA mRNA levels (% baseline value) after treatment with R1881” value ([6]; ASO 0.04 μM) was 92 % baseline value and the “PSA mRNA levels (% baseline value) after treatment with R1881” value ([6]; ASO 0.20 μM) was 77 % baseline value. For the same substance, the “PSA mRNA levels (% baseline value) after treatment with R1881” value ([6]; ASO 1.0 μM) was 44 % baseline value, the “PSA mRNA levels (% baseline value) after treatment with R1881” value ([6]; ASO 5.0 μM) was 35 % baseline value and the “PSA mRNA levels (% baseline value) of cells without AR agonist treatment” value ([6]; ASO 0.04 μM) was 113 % baseline value. For the same substance, the “PSA mRNA levels (% baseline value) of cells without AR agonist treatment” value ([6]; ASO 0.20 μM) was 83 % baseline value, the “PSA mRNA levels (% baseline value) of cells without AR agonist treatment” value ([6]; ASO 1.0 μM) was 75 % baseline value and the “PSA mRNA levels (% baseline value) of cells without AR agonist treatment” value ([6]; ASO 5.0 μM) was 71 % baseline value. The “Percent inhibition of AR mRNA” value ([3]; 0.02 μM) was 0%, the “Percent inhibition of AR mRNA” value ([3]; 0.1 μM) was 0% and the “Percent inhibition of AR mRNA” value ([3]; 0.5 μM) was 13%. For the same substance, the “Percent inhibition of AR mRNA” value ([3]; 10 μM) was 57%, the “percent inhibition of AR” value ([4]; 31.25 nM, ~16 h, Table 8) was 16% and the “percent inhibition of AR” value ([4]; 62.5 nM, ~16 h, Table 8) was 48%. For the same substance, the “percent inhibition of AR” value ([4]; 125.0 nM, ~16 h, Table 8) was 65%, the “percent inhibition of AR” value ([4]; 500.0 nM, ~16 h, Table 8) was 89% and the “percent inhibition of AR” value ([4]; 1000.0 nM, ~16 h, Table 8) was 97%. The pIC50 ([4]; ~16 h, Table 8) was 7.05, the “AR mRNA levels (% baseline value) after treatment with DHT” value ([7]; ASO 0.04 μM) was 89 % baseline value and the “AR mRNA levels (% baseline value) after treatment with DHT” value ([7]; ASO 0.20 μM) was 55 % baseline value. For the same substance, the “AR mRNA levels (% baseline value) after treatment with DHT” value ([7]; ASO 1.0 μM) was 25 % baseline value, the “AR mRNA levels (% baseline value) after treatment with DHT” value ([7]; ASO 5.0 μM) was 20 % baseline value and the “AR mRNA levels (% baseline value) after treatment with R1881” value ([7]; ASO 0.04 μM) was 87 % baseline value. For the same substance, the “AR mRNA levels (% baseline value) after treatment with R1881” value ([7]; ASO 0.20 μM) was 65 % baseline value, the “AR mRNA levels (% baseline value) after treatment with R1881” value ([7]; ASO 1.0 μM) was 30 % baseline value and the “AR mRNA levels (% baseline value) after treatment with R1881” value ([7]; ASO 5.0 μM) was 26 % baseline value. The “AR mRNA levels (% baseline value) of cells without AR agonist treatment” value ([7]; ASO 0.04 μM) was 107 % baseline value, the “AR mRNA levels (% baseline value) of cells without AR agonist treatment” value ([7]; ASO 0.20 μM) was 74 % baseline value and the “AR mRNA levels (% baseline value) of cells without AR agonist treatment” value ([7]; ASO 1.0 μM) was 29 % baseline value. The “AR mRNA levels (% baseline value) of cells without AR agonist treatment” value ([7]; ASO 5.0 μM) was 17 % baseline value.
